Consider 1 molecule from patent US6031135A, “Trimethylsphingosine derivatives” (Oncomembrane, Inc., priority 1996, dated 2000).

For one assay, the system named is platelets. In words: platelet aggregation (aggregometer, thrombin or ADP). Format: cell-based. The following applies: background statement. The method, then:
Platelets were isolated from platelet-rich plasma (purchased from the Oregon Red Cross, Portland, Oreg.). Contaminating erythrocytes were removed by centrifugation (80×g for 10 minutes). Platelets were obtained by centrifugation (300×g for 10 minutes), washed once in Tyrode buffer (pH 6.5) containing 22 mM trisodium citrate and 0.35% (w/v) BSA and resuspended in the same buffer to obtain a concentration of 1-2×10^9 platelets/ml. All procedures were performed at room temperature.
A suspension of platelets (about 3.5×10^8 /ml) in Tyrode buffer was preincubated with inhibitor compounds (H-7 [1-(5-isoquinolinylsulfonyl)-2-methylpiperazine, a synthetic protein kinase-C inhibitor purchased from Seikagaku America Inc., St. Petersburg, Fla.], Calphostin-C [a synthetic protein kinase-C inhibitor obtained from Dr. Saitoh, Kyowa Hakko Co., Ltd., Machida, Tokyo, Japan], sphingosine [purchased from Sigma, St. Louis, Mo.] and dimethylsphingosine and trimethylsphingosine [synthesized according to Igarashi et al., Biochem., 28, 6796, 1989]) followed by addition of thrombin or ADP (both purchased from Sigma). Platelet aggregation was evaluated by transmittance change using an aggregometer (Chrono-log Corp., Havertown, Pa.) equipped with a computer analyzer.

For the next assay, the system named is BL6 cells. The experiment in a line: tritiated thymidine incorporation, cell growth. The assay is classed as cell-based, mouse. The conditions noted are these: BL6 cells in vitro. The method, then:
(§1) An in vitro assay relying on tritiated thymidine incorporation can be used to ascertain the effect of various compounds on cell proliferation. Briefly, tumor cells are seeded in flat bottom 96 well plates (Corning, N.Y.) at a concentration of 2×10^4 cells per well. The cells were cultured for 2 days in DMEM containing various concentrations of sphingoid which was added as a PBS solution. The medium then was supplemented with tritiated thymidine at a concentration of 0.5 μCi per well. Following a six hour incubation the cells were collected using the PHD Cell Harvester (Cambridge Technology, Cambridge, Mass.) and amounts of incorporated radioactivity were determined after adding a suitable cell lysing agent and scintillation cocktail, such as ScintiVerse BD (Fisher Scientific, Fairlawn, Calif.) which performs both functions.
(§2) Certain cancer cells show a higher metastatic potential and invasive capability than others. For example, in the mouse, the BL6 and F10 melanoma cell lines are highly metastatic and invasive. On the other hand, the F1 variant is much less metastatic and invasive (I. R. Hart et al., Amer. J. Pathol., 97, 587-592 (1979); G. Poote et al., Cancer Res. 42, 2770-2778 (1982); F1 and F10 clones from ATCC CRL 6323, and CRL 6475, respectively). BL6 and F1 cells were tested in vitro as described above. […]

The next assay concerns F1 cells. In words: tritiated thymidine incorporation, cell growth. The assay is classed as cell-based, mouse. The conditions noted are these: F1 cells in vitro. The method, then: as §1, §2
A further assay concerns neutrophils. The experiment in a line: PMA-dependent O2 consumption of neutrophils. The assay is classed as cell-based, human.
Assay [1] concerns 47 kDa and 65 kDa proteins. In words: PMA-stimulated protein phosphorylation in 32P-labeled neutrophils. The following applies: neutrophils pre-incubated with 15-45 μM, then 1.5 μM PMA. Format: cell-based, human. The method, then: Excess unbound components were removed by centrifugation and the pellets were resuspended in the same buffer, repeating twice. The cells then were divided into 7 treatment groups, each containing ≈1×10^7 cells in a total volume of 0.4 ml. TMS, SPN or DMS was added to a suspension and incubated at 37° C. for 10 min, followed by addition of PMA to a final concentration of 1.5 μM. Two minutes later, the reaction was terminated by adding 0.1 ml of Laemmli sample buffer and 20 mM EDTA, followed by heating at 100° C. for 5 min. Aliquots were separated through 10% sodium dodecyl sulfate gels using known procedures. ^32 P incorporation was visualized by autoradiography.

Entries after “also recorded” stand apart in the source; their conditions may differ.

As for `CCCCCCCCCCCCC/C=C/C(O)C(CO)[N+](C)(C)C` (centres unmarked) [TMS, N,N,N-trimethylsphingosine], the “Platelet aggregation and associated ATP secretion” value in the assay on platelets is “inhibited strongly”. The inhibiting cell growth result with BL6 cells is “more effective than DMS and sphingosine”; in the assay with F1 cells, “more effective than DMS and sphingosine”. For the same molecule, the “PMA-dependent enhancement of O2 consumption” value in the assay with neutrophils is on record as “inhibited strongly”. The “phosphorylation of 47 kDa and 65 kDa proteins” value in assay [1] was “diminished significantly; also recorded: had an affect on phosphorylation”.
